Laboratory results reported in publication PMC4893804 (Journal of medicinal chemistry, 2015).

Tests used:
[1] = test system: human DNA polymerases α and β; assay: Human DNA polymerase α and β assays, pooled statements in text; format: biochemical
[2] = test system: herpetic DNA polymerases (HCMV, HSV-1, VZV); assay: Herpetic DNA polymerase assays, pooled statements in text; format: biochemical
[3] = biological target: T1, RB69/ABC5 hybrid DNA polymerase (Escherichia phage RB69, UniProt Q38087, D222A/D327A/F479V/I557M/L561V/L562T/N480A/N558A/R559L/V478W); assay: biochemical; set-up: species or system bacteriophage RB69 / HCMV
HSV-1 DNA polymerase = HSV-1 DNA polymerase (Human herpesvirus 1, UniProt P04293); assay: Enzyme assay with HSV-1 DNA polymerase; format: biochemical
Human DNA Pol α = biological target: T2, Human DNA Pol α (Homo sapiens, UniProt P09884); assay: Enzyme assay with human DNA polymerase α; format: biochemical
T2 sequence (P09884 1-1462): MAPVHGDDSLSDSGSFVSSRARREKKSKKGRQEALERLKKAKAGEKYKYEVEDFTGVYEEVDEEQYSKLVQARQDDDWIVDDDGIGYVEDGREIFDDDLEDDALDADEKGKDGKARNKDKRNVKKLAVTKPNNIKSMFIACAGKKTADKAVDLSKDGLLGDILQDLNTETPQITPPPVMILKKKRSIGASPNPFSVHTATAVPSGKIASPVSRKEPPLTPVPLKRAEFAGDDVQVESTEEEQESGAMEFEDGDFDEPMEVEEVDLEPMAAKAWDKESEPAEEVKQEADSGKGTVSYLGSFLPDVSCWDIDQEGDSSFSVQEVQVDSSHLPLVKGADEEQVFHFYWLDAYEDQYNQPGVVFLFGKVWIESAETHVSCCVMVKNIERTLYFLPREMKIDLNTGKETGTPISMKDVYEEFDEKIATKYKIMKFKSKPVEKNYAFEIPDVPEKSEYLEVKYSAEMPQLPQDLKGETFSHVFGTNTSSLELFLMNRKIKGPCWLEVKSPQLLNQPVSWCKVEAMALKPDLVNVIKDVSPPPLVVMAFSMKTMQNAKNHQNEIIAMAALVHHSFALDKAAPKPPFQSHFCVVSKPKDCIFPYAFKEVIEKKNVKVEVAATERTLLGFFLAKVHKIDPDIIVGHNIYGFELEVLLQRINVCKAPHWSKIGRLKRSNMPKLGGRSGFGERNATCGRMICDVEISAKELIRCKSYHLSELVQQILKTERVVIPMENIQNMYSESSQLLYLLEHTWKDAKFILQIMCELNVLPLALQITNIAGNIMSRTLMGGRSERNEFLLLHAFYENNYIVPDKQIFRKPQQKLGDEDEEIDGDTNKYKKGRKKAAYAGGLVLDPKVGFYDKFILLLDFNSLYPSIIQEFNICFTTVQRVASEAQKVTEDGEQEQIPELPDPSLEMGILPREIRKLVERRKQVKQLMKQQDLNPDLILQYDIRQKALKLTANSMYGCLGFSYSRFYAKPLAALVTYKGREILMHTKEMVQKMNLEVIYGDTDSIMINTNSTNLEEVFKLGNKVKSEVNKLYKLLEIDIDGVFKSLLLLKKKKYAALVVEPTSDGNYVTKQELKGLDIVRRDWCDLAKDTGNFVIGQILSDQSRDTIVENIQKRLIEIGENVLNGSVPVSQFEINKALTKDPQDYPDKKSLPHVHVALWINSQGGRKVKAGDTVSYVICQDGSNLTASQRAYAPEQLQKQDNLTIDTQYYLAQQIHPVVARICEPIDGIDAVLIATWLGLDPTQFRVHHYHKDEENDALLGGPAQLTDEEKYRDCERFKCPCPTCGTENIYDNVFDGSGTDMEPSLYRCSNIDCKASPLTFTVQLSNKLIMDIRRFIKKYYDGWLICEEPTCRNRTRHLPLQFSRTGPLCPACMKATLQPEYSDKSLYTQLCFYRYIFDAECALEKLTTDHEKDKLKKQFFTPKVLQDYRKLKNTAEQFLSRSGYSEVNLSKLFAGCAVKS

[4] = biological target: bacteriophage RB69 DNA polymerase gp43 (WT) (Escherichia phage RB69, UniProt Q38087, D222A/D327A); assay: biochemical
Human DNA Pol β = Human DNA Pol β (Homo sapiens, UniProt P06746); assay: Enzyme assay with human DNA polymerase β; format: biochemical
HIV-1 RT = HIV-1 RT (Human immunodeficiency virus type 1 group M subtype B, UniProt P03366); assay: HIV-1 reverse transcriptase assay with homopolymeric template/primers; format: biochemical
VZV DNA polymerase = VZV DNA polymerase (Varicella-zoster virus, UniProt P09252); assay: Enzyme assay with VZV DNA polymerase; format: biochemical
Y115F HIV-1 RT = Y115F HIV-1 RT (Human immunodeficiency virus type 1 group M subtype B, UniProt P03366, Y714F); assay: Mutant HIV-1 RT assay
M184I HIV-1 RT = M184I HIV-1 RT (Human immunodeficiency virus type 1 group M subtype B, UniProt P03366, M783I); assay: Mutant HIV-1 RT assay
[5] = biological target: HCMV DNA polymerase (UL54) (Human cytomegalovirus, UniProt P08546); assay: Enzyme assay with HCMV DNA polymerase; format: biochemical; conditions: IC50 HCMV DNA Pol, activated calf thymus DNA, [3H]dTTP
[6] = biological target: T1, RB69/ABC5 hybrid DNA polymerase; conditions: cited from earlier work
[7] = IC50 HIV-1 RT Poly rA.dT ([3H]dTTP), Table 7, Poly rA.dT, [3H]dTTP
[8] = IC50 HIV-1 RT Poly rC.dG ([3H]dGTP), Poly rC.dG, [3H]dGTP
[9] = IC50 HIV-1 RT Poly rI.dC ([3H]dCTP), Poly rI.dC, [3H]dCTP
[10] = IC50 HIV-1 RT Poly rU.dA ([3H]dATP), Poly rU.dA, [3H]dATP
[11] = IC50 HIV-1 RT, poly rA.dT template/primer, [3H]dTTP
[12] = IC50 Wild-type HIV-1 RT, Table 8, wild-type RT

T1 sequence (Q38087 whole entry D222A/D327A/V478W/F479V/N480A/I557M/N558A/R559L/L561V/L562T): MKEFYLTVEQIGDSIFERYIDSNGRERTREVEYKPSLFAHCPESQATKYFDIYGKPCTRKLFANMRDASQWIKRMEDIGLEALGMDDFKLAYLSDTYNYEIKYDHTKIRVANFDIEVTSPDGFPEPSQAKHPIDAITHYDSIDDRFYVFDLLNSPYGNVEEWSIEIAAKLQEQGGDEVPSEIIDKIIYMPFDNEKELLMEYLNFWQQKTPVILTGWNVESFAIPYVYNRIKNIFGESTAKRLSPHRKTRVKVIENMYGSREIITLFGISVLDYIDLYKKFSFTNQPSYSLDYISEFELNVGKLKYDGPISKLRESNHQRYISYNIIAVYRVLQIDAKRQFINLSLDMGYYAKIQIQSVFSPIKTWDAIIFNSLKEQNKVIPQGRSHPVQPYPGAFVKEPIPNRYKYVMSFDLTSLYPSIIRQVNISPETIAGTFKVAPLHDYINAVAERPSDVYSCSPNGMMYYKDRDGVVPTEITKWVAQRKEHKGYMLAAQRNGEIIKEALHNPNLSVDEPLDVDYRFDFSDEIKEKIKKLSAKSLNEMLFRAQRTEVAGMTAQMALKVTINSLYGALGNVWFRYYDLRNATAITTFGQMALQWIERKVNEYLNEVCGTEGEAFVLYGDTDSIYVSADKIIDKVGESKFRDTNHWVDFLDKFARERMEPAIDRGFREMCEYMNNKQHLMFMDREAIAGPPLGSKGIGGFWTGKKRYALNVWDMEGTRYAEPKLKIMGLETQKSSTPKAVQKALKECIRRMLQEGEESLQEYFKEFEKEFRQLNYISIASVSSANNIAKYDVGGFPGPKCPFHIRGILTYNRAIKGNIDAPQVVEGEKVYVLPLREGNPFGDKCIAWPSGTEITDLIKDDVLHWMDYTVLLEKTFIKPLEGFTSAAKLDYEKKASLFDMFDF
Chain of HSV-1 DNA polymerase (P04293 whole entry): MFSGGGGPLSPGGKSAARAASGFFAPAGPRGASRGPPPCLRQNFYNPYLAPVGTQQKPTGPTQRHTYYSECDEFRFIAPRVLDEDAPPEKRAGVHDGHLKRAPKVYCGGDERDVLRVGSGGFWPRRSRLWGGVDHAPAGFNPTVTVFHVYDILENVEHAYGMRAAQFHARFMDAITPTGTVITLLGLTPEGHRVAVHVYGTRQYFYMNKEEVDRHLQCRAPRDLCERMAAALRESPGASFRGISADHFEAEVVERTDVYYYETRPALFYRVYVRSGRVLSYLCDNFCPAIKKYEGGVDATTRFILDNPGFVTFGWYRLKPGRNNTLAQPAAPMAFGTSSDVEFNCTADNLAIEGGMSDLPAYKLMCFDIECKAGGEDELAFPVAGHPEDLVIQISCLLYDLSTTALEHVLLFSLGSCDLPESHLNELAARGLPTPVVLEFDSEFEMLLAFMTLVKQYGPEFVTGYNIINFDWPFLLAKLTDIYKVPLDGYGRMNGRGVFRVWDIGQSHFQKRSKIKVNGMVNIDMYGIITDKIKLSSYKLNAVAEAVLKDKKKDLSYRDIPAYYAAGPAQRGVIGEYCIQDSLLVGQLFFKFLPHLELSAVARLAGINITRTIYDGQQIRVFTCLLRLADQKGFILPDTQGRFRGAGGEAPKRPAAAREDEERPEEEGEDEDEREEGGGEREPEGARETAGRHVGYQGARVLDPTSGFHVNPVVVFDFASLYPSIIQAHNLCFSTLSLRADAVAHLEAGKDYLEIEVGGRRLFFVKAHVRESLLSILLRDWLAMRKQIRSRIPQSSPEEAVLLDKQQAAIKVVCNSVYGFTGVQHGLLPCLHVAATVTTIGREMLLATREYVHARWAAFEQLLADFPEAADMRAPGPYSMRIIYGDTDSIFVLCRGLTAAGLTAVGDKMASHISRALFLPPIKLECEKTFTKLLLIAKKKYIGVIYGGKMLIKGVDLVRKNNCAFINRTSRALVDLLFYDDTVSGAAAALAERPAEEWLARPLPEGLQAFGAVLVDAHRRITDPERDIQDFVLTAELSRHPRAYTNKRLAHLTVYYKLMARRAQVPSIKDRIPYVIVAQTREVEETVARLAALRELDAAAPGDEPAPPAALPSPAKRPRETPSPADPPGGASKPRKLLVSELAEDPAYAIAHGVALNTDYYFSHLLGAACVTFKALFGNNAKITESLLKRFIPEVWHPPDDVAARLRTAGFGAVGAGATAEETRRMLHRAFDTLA
Chain of HCMV DNA polymerase (UL54) (P08546 whole entry): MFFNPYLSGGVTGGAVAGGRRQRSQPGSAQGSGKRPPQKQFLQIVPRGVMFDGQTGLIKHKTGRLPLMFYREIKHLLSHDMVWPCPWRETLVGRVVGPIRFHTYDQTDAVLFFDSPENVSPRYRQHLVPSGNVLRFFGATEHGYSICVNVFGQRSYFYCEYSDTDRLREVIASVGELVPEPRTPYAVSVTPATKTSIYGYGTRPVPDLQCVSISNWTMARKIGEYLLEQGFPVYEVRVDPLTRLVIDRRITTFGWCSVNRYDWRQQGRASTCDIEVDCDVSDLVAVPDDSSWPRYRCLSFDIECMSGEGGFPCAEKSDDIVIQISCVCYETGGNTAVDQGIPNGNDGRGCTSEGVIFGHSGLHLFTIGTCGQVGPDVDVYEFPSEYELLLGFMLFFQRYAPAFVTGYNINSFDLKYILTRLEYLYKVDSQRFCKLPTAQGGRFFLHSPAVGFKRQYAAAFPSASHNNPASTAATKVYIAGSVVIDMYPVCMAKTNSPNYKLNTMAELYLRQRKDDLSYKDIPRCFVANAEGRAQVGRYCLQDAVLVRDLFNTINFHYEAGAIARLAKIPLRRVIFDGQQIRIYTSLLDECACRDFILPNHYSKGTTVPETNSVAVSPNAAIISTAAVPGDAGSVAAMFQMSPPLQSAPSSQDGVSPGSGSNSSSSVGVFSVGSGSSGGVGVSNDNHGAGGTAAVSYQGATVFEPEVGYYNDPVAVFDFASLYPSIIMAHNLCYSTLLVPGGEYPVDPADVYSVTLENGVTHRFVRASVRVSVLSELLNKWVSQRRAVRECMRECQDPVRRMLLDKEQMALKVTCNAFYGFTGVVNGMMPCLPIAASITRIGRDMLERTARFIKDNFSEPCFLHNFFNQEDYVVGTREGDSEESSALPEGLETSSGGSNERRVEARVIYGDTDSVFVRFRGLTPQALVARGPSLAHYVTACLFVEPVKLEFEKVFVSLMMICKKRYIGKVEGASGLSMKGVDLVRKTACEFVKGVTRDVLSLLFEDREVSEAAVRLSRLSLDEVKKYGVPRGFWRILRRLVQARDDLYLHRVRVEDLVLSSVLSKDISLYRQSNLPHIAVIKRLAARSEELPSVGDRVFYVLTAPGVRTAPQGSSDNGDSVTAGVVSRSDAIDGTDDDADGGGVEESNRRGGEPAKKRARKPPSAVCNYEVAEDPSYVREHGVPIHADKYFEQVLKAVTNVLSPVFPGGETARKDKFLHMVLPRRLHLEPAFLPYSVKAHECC
Chain of VZV DNA polymerase (P09252 whole entry): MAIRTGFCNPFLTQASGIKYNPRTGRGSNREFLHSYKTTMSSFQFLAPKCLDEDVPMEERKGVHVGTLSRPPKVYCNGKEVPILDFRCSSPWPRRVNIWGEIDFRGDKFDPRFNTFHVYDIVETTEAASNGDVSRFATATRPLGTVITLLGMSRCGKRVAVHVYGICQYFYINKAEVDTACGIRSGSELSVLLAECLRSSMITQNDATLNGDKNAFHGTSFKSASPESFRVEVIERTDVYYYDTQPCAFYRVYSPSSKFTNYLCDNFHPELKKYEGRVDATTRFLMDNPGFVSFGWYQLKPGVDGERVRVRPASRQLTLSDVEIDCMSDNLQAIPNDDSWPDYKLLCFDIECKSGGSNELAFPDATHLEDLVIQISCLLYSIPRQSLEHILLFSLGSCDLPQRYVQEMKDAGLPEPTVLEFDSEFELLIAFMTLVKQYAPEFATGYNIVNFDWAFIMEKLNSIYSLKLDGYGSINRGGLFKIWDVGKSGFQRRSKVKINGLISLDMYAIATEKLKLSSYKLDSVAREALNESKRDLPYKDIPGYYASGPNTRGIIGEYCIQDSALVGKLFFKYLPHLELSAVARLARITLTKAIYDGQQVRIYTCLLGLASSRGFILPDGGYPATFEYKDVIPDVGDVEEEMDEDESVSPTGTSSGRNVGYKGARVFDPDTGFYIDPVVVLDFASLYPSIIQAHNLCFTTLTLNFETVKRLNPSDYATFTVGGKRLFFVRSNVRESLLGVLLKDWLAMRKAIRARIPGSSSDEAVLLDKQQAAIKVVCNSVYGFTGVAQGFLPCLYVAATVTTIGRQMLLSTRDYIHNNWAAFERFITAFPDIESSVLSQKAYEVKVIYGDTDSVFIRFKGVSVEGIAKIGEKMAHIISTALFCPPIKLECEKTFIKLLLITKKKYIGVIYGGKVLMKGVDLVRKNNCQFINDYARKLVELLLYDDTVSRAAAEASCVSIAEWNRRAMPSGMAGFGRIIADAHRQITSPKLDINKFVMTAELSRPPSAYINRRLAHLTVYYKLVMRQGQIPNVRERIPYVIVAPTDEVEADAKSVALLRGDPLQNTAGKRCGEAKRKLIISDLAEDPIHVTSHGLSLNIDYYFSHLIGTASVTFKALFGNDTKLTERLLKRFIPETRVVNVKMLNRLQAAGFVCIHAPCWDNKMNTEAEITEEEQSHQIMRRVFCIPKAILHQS
Chain of bacteriophage RB69 DNA polymerase gp43 (WT) (Q38087 whole entry D222A/D327A): as the sequence (Q38087 whole entry D222A/D327A/V478W/F479V/N480A/I557M/N558A/R559L/L561V/L562T) above, with W478V, V479F, A480N, M557I, A558N, L559R, V561L, T562L counted along it

SMILES: Cc1cn(C[C@@H]2CCC[C@H]2COC(C(=O)O)P(=O)(O)O)c(=O)[nH]c1=O (relative stereo) [Compound 6o]
- inhibitory activity against human DNA polymerases (in words) [1]: poor, if any, inhibitory activity
- inhibitory activity against herpetic DNA polymerases (in words) [2]: poor, if any, inhibitory activity

SMILES: Cc1cn(C/C=C\COC(C(=O)O)P(=O)(O)O)c(=O)[nH]c1=O (stereo not drawn) [Compound 6g, cis-2-(4-(2,4-Dioxo-5-methyl-pyrimidin-1-yl)but-2-enyloxy)-2-phosphonoacetic acid]
- IC50 [3]: > 100 µM
- IC50 (HSV-1 DNA polymerase): 3.7 ± 1.7 µM
- IC50 (Human DNA Pol α): 14 ± 7 µM
- IC50 [4]: > 100 µM
- IC50 (Human DNA Pol β): > 500 µM
- IC50 (HIV-1 RT; [7]): 235 ± 16 µM
- IC50 (HIV-1 RT; [8]): > 500 µM
- IC50 (HIV-1 RT; [9]): > 500 µM
- IC50 (HIV-1 RT; [10]): ≥ 500 µM
- IC50 (HIV-1 RT; [11]): 235 ± 16 µM
- IC50 (HIV-1 RT; [12]): 320 ± 89 µM
- loss of anti-HIV-1 RT activity compared to prototype thymine-α-CNP (HIV-1 RT; ratio of IC50 vs thymine-α-CNP): ~ 600 fold
- IC50 (VZV DNA polymerase): 2.2 ± 0.1 µM
- IC50 (Y115F HIV-1 RT): 655 ± 409 µM
- IC50 (M184I HIV-1 RT): > 2500 µM
- selectivity for herpetic DNA polymerases compared to human DNA polymerase α ([2]; herpetic vs human DNA polymerase α): 4- to 7 fold
- higher potency against herpetic DNA polymerases compared to butyl analogue 6h ([2]; ratio vs 6h): 8- to 20 fold
- superior activity against herpetic DNA polymerases than against HIV-1 RT ([2]; selectivity herpetic over HIV-1 RT): ~ 100 fold

SMILES: Nc1ccn(C/C=C\COC(C(=O)O)P(=O)(O)O)c(=O)n1 (stereo not drawn) [Compound 6m, 2-Cis-(4-(4-amino-2-oxopyrimidin-1(2H)-yl)but-2-enyloxy)-2-phosphonoacetic acid]
- IC50 (HSV-1 DNA polymerase): 12 ± 6 µM
- IC50 (Human DNA Pol α): 414 ± 22 µM
- IC50 (Human DNA Pol β): > 500 µM
- IC50 (HIV-1 RT; [7]): 270 ± 33 µM
- IC50 (HIV-1 RT; [8]): > 500 µM
- IC50 (HIV-1 RT; [9]): 273 ± 54 µM
- IC50 (HIV-1 RT; [10]): > 500 µM
- IC50 (HIV-1 RT; [11]): 270 ± 33 µM
- IC50 (HIV-1 RT; [12]): 318 ± 73 µM
- IC50 (VZV DNA polymerase): 2.9 ± 0.9 µM
- IC50 (Y115F HIV-1 RT): 408 ± 16 µM
- IC50 (M184I HIV-1 RT): > 1250 µM
- IC50 [5]: 16 ± 8 µM

SMILES: O=C(O)C(OC/C=C\CO)P(=O)(O)O (stereo not drawn) [Compound 6n, 2-Cis-((4-hydroxybut-2-en-1-yl)oxy)-2-phosphonoacetic acid]
- inhibitory activity against HIV-1 RT (in words) (HIV-1 RT): insensitive
- inhibitory activity against human DNA polymerases (in words) [1]: insensitive
- inhibitory activity against herpetic DNA polymerases (in words) [2]: insensitive

SMILES: O=C(O)P(=O)(O)O [PFA, phosphonoformic acid, reference compound]
- IC50 (HSV-1 DNA polymerase): 0.44 ± 0.25 µM
- IC50 (Human DNA Pol α): 7.7 ± 6.5 µM
- IC50 (Human DNA Pol β): > 100 µM
- sensitivity of chimera RB69/ABC5 to active-site inhibitors [6]: sensitive
- IC50 (HIV-1 RT; IC50 HIV-1 RT): 0.34 ± 0.01 µM
- IC50 (HIV-1 RT; IC50 HIV-1 RT Poly rA.dT ([3H]dTTP)): 0.34 ± 0.01 µM
- IC50 (HIV-1 RT; IC50 HIV-1 RT Poly rC.dG ([3H]dGTP)): 17 ± 2 µM
- IC50 (HIV-1 RT; IC50 HIV-1 RT Poly rI.dC ([3H]dCTP)): 6.8 ± 2 µM
- IC50 (HIV-1 RT; IC50 HIV-1 RT Poly rU.dA ([3H]dATP)): 0.75 ± 0.13 µM
- IC50 [5]: 9.8 ± 5.8 µM

SMILES: Nc1nc2c(ncn2COCCOP(=O)(O)OP(=O)(O)OP(=O)(O)O)c(=O)[nH]1 [acyclovir triphosphate]
- sensitivity of chimera RB69/ABC5 to active-site inhibitors [6]: sensitive
